According to US20170362228A1, “TETRAHYDRO-PYRIDO[3,4-b]INDOLE ESTROGEN RECEPTOR MODULATORS AND USES THEREOF” (Genentech, Inc., priority 2016, published 2017):
Read-outs that look alike come from different tables or passages of the source.

Tests used:
immature rat uterus = assay: Immature Uterine Wet Weight Assay, agonist mode (Example 906); format: in vivo; conditions: dosed PO, QD×3
Protocol: Female immature CD-IGS rats (21 days old upon arrival) are treated for three days. Animals are dosed daily for three days. For Antagonist Mode, Vehicle or test compound is administered orally by gavage followed 15 minutes later by an oral dose of 0.1 mg/kg Ethynyl Estradiol. For Agonist Mode, Vehicle or test compound is administered orally by gavage. On the fourth day 24 hours after dose, plasma is collected for pharmacokinetic analysis. Immediately following plasma collection, the animals are euthanized and the uterus removed and weighed.
Uteri and ovaries from 2 animals per group are fixed in 10% neutral buffered formalin and paraffin embedded, sectioned and stained for H&E (SDPath). Stained tissues are analyzed and read by a board certified pathologist. […]
Mice were treated with Formula I compounds (1R,3R)-1-(2,6-difluoro-4-((1-(3-fluoropropyl)azetidin-3-yl)oxy)phenyl)-2-(2-fluoro-2-methylpropyl)-3-methyl-2,3,4,9-tetrahydro-1H-pyrido[3,4-b]indole 101 and (1R,3R)-1-(2,6-difluoro-4-(2-(3-(fluoromethyl)azetidin-1-yl)ethoxy)phenyl)-2-(2-fluoro-2-methylpropyl)-3-methyl-2,3,4,9-tetrahydro-1H-pyrido[3,4-b]indole 102, tamoxifen, fulvestrant, AZD9496 (WO 2014/191726, Example 1, page 74; U.S. Pat. No. 9,155,727), and two controls: Vehicle and Vehicle plus ethynyl estradiol (EE). […] Uterine Wet Weight (UWW): Body Weight ratios were calculated. […]

[1] = biological target: T1, estrogen receptor alpha (ESR1) (Homo sapiens, UniProt P03372); assay: Breast Cancer Cell ERa High Content Fluorescence Imaging Degradation Assay (Example 901); format: cell-based; conditions: Table 1b; MCF7 breast cancer cells, 4 hours; plateau of the maximal effect
T1 construct: endogenous in cells; host or cells: MCF7 breast cancer cells
T1 sequence (P03372 1-595): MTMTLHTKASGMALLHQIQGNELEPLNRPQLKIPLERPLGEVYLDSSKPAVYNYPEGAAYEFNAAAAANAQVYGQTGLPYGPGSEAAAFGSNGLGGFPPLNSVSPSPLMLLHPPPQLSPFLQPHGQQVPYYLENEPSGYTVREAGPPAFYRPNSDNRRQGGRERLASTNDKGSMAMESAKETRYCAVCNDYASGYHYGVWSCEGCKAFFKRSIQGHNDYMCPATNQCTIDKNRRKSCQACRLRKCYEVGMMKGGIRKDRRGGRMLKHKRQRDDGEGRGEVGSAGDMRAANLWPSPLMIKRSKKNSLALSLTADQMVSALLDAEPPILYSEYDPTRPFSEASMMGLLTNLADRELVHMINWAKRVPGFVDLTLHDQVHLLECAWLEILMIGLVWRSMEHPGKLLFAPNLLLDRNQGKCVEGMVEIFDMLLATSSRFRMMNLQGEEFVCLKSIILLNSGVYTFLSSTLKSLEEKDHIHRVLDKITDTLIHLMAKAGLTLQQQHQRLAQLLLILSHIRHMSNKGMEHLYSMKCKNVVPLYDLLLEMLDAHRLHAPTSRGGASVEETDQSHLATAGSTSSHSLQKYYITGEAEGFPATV
How it was run: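 MCF7 cells in phenol red-free RPMI with 10% charcoal-stripped FBS, exposed to compound at 0.05–835 nM (10-point, 1.8×, duplicate; 0.84% DMSO) for 4 h at 37 °C. Fixed cells immunostained for ESR1 (F10 mAb, Alexa 488) with Hoechst nuclear mask; nuclear ESR1 intensity imaged per cell. DMSO and 5 nM fulvestrant set 0%/100%; EC50 and Sinf by robust fit.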

MCF7 cells = assay: In vitro cell proliferation assays (Examples 902 and 903), MCF7; format: cell-based; conditions: read-out: ER-alpha MCF7 HCS (EC50)

Structure (SMILES)	ER-alpha MCF7 HCS (S inf) [1] [%]	EC50 (MCF7 cells; Homo sapiens, MCF7, Table 1b) [pM]	EC50 (MCF7 cells; Table 1b) [pM]	activity in agonist mode UWW assay (immature rat uterus)
C[C@@H]1Cc2c([nH]c3ccccc23)[C@@H](c2c(F)cc(/C=C/C(=O)O)cc2F)N1CC(C)(C)F [AZD9496]	–	–	–	partial agonist
C[C@@H]1Cc2c([nH]c3ccccc23)[C@@H](c2c(F)cc([C@](C)(O)C3CN(CCCF)C3)cc2F)N1CC(F)(F)CO [Compound 155, 3-((1R,3R)-1-(2,6-difluoro-4-((R)-1-(1-(3-fluoropropyl)azetidin-3-yl)-1-hydroxyethyl)phenyl)-3-methyl-3,4-dihydro-1H-pyrido[3,4-b]indol-2(9H)-yl)-2,2-difluoropropan-1-ol]	−84	740	–	–
C[C@@H]1Cc2c([nH]c3ccccc23)[C@@H](c2c(F)cc([C@H](F)C3CN(CCCF)C3)cc2F)N1C[C@H](F)CO [Compound 158, (S)-3-((1R,3R)-1-(2,6-difluoro-4-((R)-fluoro(1-(3-fluoropropyl)azetidin-3-yl)methyl)phenyl)-3-methyl-3,4-dihydro-1H-pyrido[3,4-b]indol-2(9H)-yl)-2-fluoropropan-1-ol]	−101	400	–	–
C[C@@H]1Cc2c([nH]c3ccccc23)[C@@H](c2c(F)cc([C@@H](F)C3CN(CCCF)C3)cc2F)N1C[C@H](F)CO [Compound 159, (S)-3-((1R,3R)-1-(2,6-difluoro-4-((S)-fluoro(1-(3-fluoropropyl)azetidin-3-yl)methyl)phenyl)-3-methyl-3,4-dihydro-1H-pyrido[3,4-b]indol-2(9H)-yl)-2-fluoropropan-1-ol]	−99	81	–	–
C[C@@H]1Cc2c([nH]c3ccccc23)[C@@H](c2c(F)cc([C@H](O)C3CN(CCCF)C3)cc2F)N1C[C@@H](F)CF [Compound 161]	−97	130	–	–
C[C@@H]1Cc2c([nH]c3ccccc23)[C@@H](c2c(F)cc([C@@H](O)C3CN(CCCF)C3)cc2F)N1C[C@H](F)CF [Compound 162, (S)-(4-((1R,3R)-2-((S)-2,3-difluoropropyl)-3-methyl-2,3,4,9-tetrahydro-1H-pyrido[3,4-b]indol-1-yl)-3,5-difluorophenyl)(1-(3-fluoropropyl)azetidin-3-yl)methanol]	−100	–	70	–
C[C@@H]1Cc2c([nH]c3ccccc23)[C@@H](c2c(F)cc(CC3CN(CCCF)C3)cc2F)N1C[C@H](F)CO [Compound 166, (S)-3-((1R,3R)-1-(2,6-difluoro-4-((1-(3-fluoropropyl)azetidin-3-yl)methyl)phenyl)-3-methyl-3,4-dihydro-1H-pyrido[3,4-b]indol-2(9H)-yl)-2-fluoropropan-1-ol]	−99	40	–	–
CO[C@@H](c1cc(F)c([C@@H]2c3[nH]c4ccccc4c3C[C@@H](C)N2CC(F)(F)CO)c(F)c1)C1CN(CCCF)C1 [Compound 169, 3-((1R,3R)-1-(2,6-Difluoro-4-((R)-(1-(3-fluoropropyl)azetidin-3-yl)(methoxy)methyl)phenyl)-3-methyl-3,4-dihydro-1H-pyrido[3,4-b]indol-2(9H)-yl)-2,2-difluoropropan-1-ol]	−89	108	–	–
CO[C@H](c1cc(F)c([C@@H]2c3[nH]c4ccccc4c3C[C@@H](C)N2CC(F)(F)CO)c(F)c1)C1CN(CCCF)C1 [Compound 170, 3-((1R,3R)-1-(2,6-Difluoro-4-((S)-(1-(3-fluoropropyl)azetidin-3-yl)(methoxy)methyl)phenyl)-3-methyl-3,4-dihydro-1H-pyrido[3,4-b]indol-2(9H)-yl)-2,2-difluoropropan-1-ol]	−94	78	–	–
C[C@@H]1Cc2c([nH]c3ccccc23)[C@@H](c2ccc([C@H](O)C3CN(CCCF)C3)c(F)c2F)N1CC(F)(F)CO [Compound 173, 3-((1R,3R)-1-(2,3-difluoro-4-((R)-(1-(3-fluoropropyl)azetidin-3-yl)(hydroxy)methyl)phenyl)-3-methyl-1,3,4,9-tetrahydro-2H-pyrido[3,4-b]indol-2-yl)-2,2-difluoropropan-1-ol]	−100	72	–	–

The remaining compounds from weak to strong by EC50 (MCF7 cells; Homo sapiens, MCF7, Table 1b), led by results:

ER-alpha MCF7 HCS (S inf) [1] [%]	EC50 (MCF7 cells; Homo sapiens, MCF7, Table 1b) [pM]	EC50 (MCF7 cells; Table 1b) [pM]	Structure (SMILES)	activity in agonist mode UWW assay (immature rat uterus)
−81	5800	–	COc1cc([C@@H]2c3[nH]c4ccccc4c3C[C@@H](C)N2CC(F)(F)CO)ccc1[C@@H](O)C1CN(CCCF)C1 [Compound 176, 2,2-difluoro-3-((1R,3R)-1-(4-((S)-(1-(3-fluoropropyl)azetidin-3-yl)(hydroxy)methyl)-3-methoxyphenyl)-3-methyl-1,3,4,9-tetrahydro-2H-pyrido[3,4-b]indol-2-yl)propan-1-ol]	–
−96	630	–	COc1cc([C@@H]2c3[nH]c4ccccc4c3C[C@@H](C)N2CC(F)(F)CO)ccc1[C@H](O)C1CN(CCCF)C1 [Compound 175, 2,2-difluoro-3-((1R,3R)-1-(4-((R)-(1-(3-fluoropropyl)azetidin-3-yl)(hydroxy)methyl)-3-methoxyphenyl)-3-methyl-1,3,4,9-tetrahydro-2H-pyrido[3,4-b]indol-2-yl)propan-1-ol]	–
−85	380	–	CO[C@@H](c1cc(F)c([C@@H]2c3[nH]c4ccc(F)cc4c3C[C@@H](C)N2CC(F)(F)CO)c(F)c1)C1CN(CCCF)C1 [Compound 164, 3-((1R,3R)-1-(2,6-difluoro-4-((R)-(1-(3-fluoropropyl)azetidin-3-yl)(methoxy)methyl)phenyl)-6-fluoro-3-methyl-3,4-dihydro-1H-pyrido[3,4-b]indol-2(9H)-yl)-2,2-difluoropropan-1-ol]	–
−102	200	–	C[C@@H]1Cc2c([nH]c3ccccc23)[C@@H](c2c(F)cc([C@H](O)C3CN(CCCF)C3)cc2F)N1C[C@H](F)CF [Compound 163]	–
−92	170	–	CO[C@H](c1cc(F)c([C@@H]2c3[nH]c4ccc(F)cc4c3C[C@@H](C)N2CC(F)(F)CO)c(F)c1)C1CN(CCCF)C1 [Compound 165, 3-((1R,3R)-1-(2,6-difluoro-4-((S)-(1-(3-fluoropropyl)azetidin-3-yl)(methoxy)methyl)phenyl)-6-fluoro-3-methyl-3,4-dihydro-1H-pyrido[3,4-b]indol-2(9H)-yl)-2,2-difluoropropan-1-ol]	–
−93	87	–	C[C@@H]1Cc2c([nH]c3ccccc23)[C@@H](c2ccc([C@H](O)C3CN(CCCF)C3)c(F)c2)N1CC(F)(F)CO [Compound 171, 2,2-difluoro-3-((1R,3R)-1-(3-fluoro-4-((R)-(1-(3-fluoropropyl)azetidin-3-yl)(hydroxy)methyl)phenyl)-3-methyl-1,3,4,9-tetrahydro-2H-pyrido[3,4-b]indol-2-yl)propan-1-ol]	–
−97	71	–	C[C@@H]1Cc2c([nH]c3ccccc23)[C@@H](c2ccc([C@@H](O)C3CN(CCCF)C3)c(F)c2F)N1CC(F)(F)CO [Compound 174, 3-((1R,3R)-1-(2,3-difluoro-4-((S)-(1-(3-fluoropropyl)azetidin-3-yl)(hydroxy)methyl)phenyl)-3-methyl-1,3,4,9-tetrahydro-2H-pyrido[3,4-b]indol-2-yl)-2,2-difluoropropan-1-ol]	–
−101	51	–	C[C@@H]1Cc2c([nH]c3ccccc23)[C@@H](c2ccc([C@@H](O)C3CN(CCCF)C3)c(F)c2)N1CC(F)(F)CO [Compound 172, 2,2-difluoro-3-((1R,3R)-1-(3-fluoro-4-((S)-(1-(3-fluoropropyl)azetidin-3-yl)(hydroxy)methyl)phenyl)-3-methyl-1,3,4,9-tetrahydro-2H-pyrido[3,4-b]indol-2-yl)propan-1-ol]	–
